According to ChEMBL document CHEMBL2424568, “Phenylpyrazolo[1,5-a]quinazolin-5(4H)-one: a suitable scaffold for the development of noncamptothecin topoisomerase I (Top1) inhibitors” (J Med Chem, 2013):
Calls of active or inactive are those of the source. The calls are words filed in the database; no cut-off is given here.

target: T1, DNA topoisomerase 1 (Homo sapiens) (UniProt P11387); assay: Inhibition of recombinant DNA topoisomerase 1 (unknown origin) assessed as inhibition of topoisomerase 1-mediated DNA cleavage at 1 uM after 20 mins by SDS-PAGE analysis
T1 sequence (whole entry): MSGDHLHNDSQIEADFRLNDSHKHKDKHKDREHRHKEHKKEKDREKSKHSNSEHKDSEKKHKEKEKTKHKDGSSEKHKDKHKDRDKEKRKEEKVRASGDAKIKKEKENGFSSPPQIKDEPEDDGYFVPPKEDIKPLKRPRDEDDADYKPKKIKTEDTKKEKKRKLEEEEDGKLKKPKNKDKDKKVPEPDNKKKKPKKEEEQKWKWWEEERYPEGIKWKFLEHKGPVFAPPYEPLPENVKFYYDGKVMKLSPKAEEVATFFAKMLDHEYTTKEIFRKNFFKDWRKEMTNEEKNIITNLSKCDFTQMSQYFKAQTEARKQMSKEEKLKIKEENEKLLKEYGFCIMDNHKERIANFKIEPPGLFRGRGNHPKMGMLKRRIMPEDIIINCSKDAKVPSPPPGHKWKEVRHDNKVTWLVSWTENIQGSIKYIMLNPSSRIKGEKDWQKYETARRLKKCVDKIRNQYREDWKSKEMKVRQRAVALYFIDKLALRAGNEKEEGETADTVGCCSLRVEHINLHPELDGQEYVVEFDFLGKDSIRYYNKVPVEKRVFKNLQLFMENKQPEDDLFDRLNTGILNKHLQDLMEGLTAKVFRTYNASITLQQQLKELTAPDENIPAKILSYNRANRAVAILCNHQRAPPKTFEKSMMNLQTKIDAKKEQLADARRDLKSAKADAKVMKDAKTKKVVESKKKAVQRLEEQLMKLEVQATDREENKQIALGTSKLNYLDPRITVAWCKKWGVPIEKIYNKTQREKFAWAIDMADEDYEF

Top1 DNA cleavage inhibition (active/not active) | Structure (SMILES)
inactive | CN(C)CCCOc1nc2c(-c3ccc(C(F)(F)F)cc3)cnn2c2ccccc12
Active | COc1cc2c3c(n(CCCNCCO)c(=O)c2cc1OC)-c1cc2c(cc1C3=O)OCO2
inactive | CN(C)CCCn1c(=O)c2ccccc2n2nc(-c3ccccc3)cc12
inactive | Clc1ccc(-c2cnn3c2nc(NCCCc2ncc[nH]2)c2ccccc23)cc1
inactive | CCN(CC)CCOc1nc2c(-c3ccc(Cl)cc3)cnn2c2ccccc12

target: T1, DNA topoisomerase 1 (Homo sapiens); assay: Inhibition of recombinant DNA topoisomerase 1 (unknown origin) assessed as inhibition of topoisomerase 1-mediated DNA cleavage at 1 to 100 uM after 20 mins by SDS-PAGE analysis relative to control

Structure (SMILES) | Top1 cleavage inhibition (active/inactive)
COc1ccc(-c2cnn3c2nc(NCCN(C)C)c2ccccc23)cc1 | Active
CN(C)CCOc1nc2c(-c3ccccc3)cnn2c2ccccc12 | Active
CN(C)CCOc1nc2c(-c3ccc(Cl)cc3)cnn2c2ccccc12 | Active
COc1ccc(-c2cnn3c2nc(NCCCc2ncc[nH]2)c2ccccc23)cc1 | inactive
COc1ccc(-c2cnn3c2nc(OCCN(C)C)c2ccccc23)cc1 | Active
CN(C)CCOc1nc2cc(-c3ccccc3)nn2c2ccccc12 | Active
CCN(CC)CCOc1nc2c(-c3ccccc3)cnn2c2ccccc12 | Active
CN(C)CCCOc1nc2c(-c3ccccc3)cnn2c2ccccc12 | Active
CN(C)CCCn1c(=O)c2ccccc2n2nc(-c3ccccc3)cc12 | inactive
CCN(CC)CCNc1nc2c(-c3ccccc3)cnn2c2ccccc12 | Active
CCN(CC)CCOc1nc2c(-c3ccc(OC)cc3)cnn2c2ccccc12 | Active
CN(C)CCCOc1nc2c(-c3ccc(Cl)cc3)cnn2c2ccccc12 | Active
CCN(CC)CCNc1nc2cc(-c3ccccc3)nn2c2ccccc12 | inactive
CN(C)CCCOc1nc2cc(-c3ccccc3)nn2c2ccccc12 | inactive
COc1ccc(-c2cnn3c2nc(OCCCN(C)C)c2ccccc23)cc1 | Active
COc1ccc(-c2cnn3c2nc(NCCCN(C)C)c2ccccc23)cc1 | Active
FC(F)(F)c1ccc(-c2cnn3c2nc(NCCCc2ncc[nH]2)c2ccccc23)cc1 | inactive
CN(C)CCNc1nc2c(-c3ccc(Cl)cc3)cnn2c2ccccc12 | Active
c1ccc(-c2cnn3c2nc(NCCCc2ncc[nH]2)c2ccccc23)cc1 | Active
CCN(CC)CCNc1nc2c(-c3ccc(OC)cc3)cnn2c2ccccc12 | Active
CN(C)CCCNc1nc2c(-c3ccc(Cl)cc3)cnn2c2ccccc12 | Active

More lines, now with the values ahead:

Top1 cleavage inhibition (active/inactive) | Structure (SMILES)
Active | CCN(CC)CCNc1nc2c(-c3ccc(Cl)cc3)cnn2c2ccccc12
inactive | CN(C)CCCOc1nc2c(-c3ccc(C(F)(F)F)cc3)cnn2c2ccccc12
inactive | O=c1c2ccccc2n2nc(-c3ccccc3)cc2n1CCCc1ncc[nH]1
Active | CN(C)CCOc1nc2c(-c3ccc(C(F)(F)F)cc3)cnn2c2ccccc12
Active | CN(C)CCNc1nc2c(-c3ccc(C(F)(F)F)cc3)cnn2c2ccccc12
Active | CCN(CC)CCNc1nc2c(-c3ccc(C(F)(F)F)cc3)cnn2c2ccccc12
Active | CN(C)CCCNc1nc2c(-c3ccc(C(F)(F)F)cc3)cnn2c2ccccc12
inactive | Clc1ccc(-c2cnn3c2nc(NCCCc2ncc[nH]2)c2ccccc23)cc1
Active | CCN(CC)CCOc1nc2cc(-c3ccccc3)nn2c2ccccc12
inactive | c1ccc(-c2cc3nc(NCCCc4ncc[nH]4)c4ccccc4n3n2)cc1
inactive | CCN(CC)CCOc1nc2c(-c3ccc(C(F)(F)F)cc3)cnn2c2ccccc12
Active | CN(C)CCn1c(=O)c2ccccc2n2nc(-c3ccccc3)cc12
Active | CCN(CC)CCOc1nc2c(-c3ccc(Cl)cc3)cnn2c2ccccc12
